Source: ChEMBL document CHEMBL1159243, “Chemical and biological investigation of the polar constituents of the starfish Luidia clathrata, collected in the Gulf of Mexico” (1995)

Assays:
Staphylococcus aureus = assay: Antimicrobial activity against Staphylococcus aureus at 50 ug/disk after 24 to 72 hrs; type: functional; details: read-out: IZ
Bacillus subtilis = assay: Antimicrobial activity against Bacillus subtilis at 50 ug/disk after 24 to 72 hrs; type: functional; details: read-out: IZ

Row | SMILES | zone of inhibition at 50 µg/disc (Staphylococcus aureus) [mm] | zone of inhibition at 50 µg/disc (Bacillus subtilis) [mm]
1 | CC(C)[C@@H](O)CC[C@@H](C)[C@H]1C[C@H](OS(=O)(=O)O)[C@H]2[C@@H]3C[C@@H](O)[C@@]4(O)C[C@@H](O)CC[C@]4(C)[C@H]3CC[C@@]21C | 1 | 3
2 | C[C@H](CO)CCC[C@@H](C)[C@H]1[C@@H](O)[C@H](O)[C@H]2[C@@H]3[C@H](O)[C@@H](O)[C@H]4C[C@@H](O)CC[C@]4(C)[C@H]3CC[C@]12C | 1 | 2
